Read-outs that look alike come from different tables or passages of the source.
How the values were obtained:
[1] = Acute toxicity by oral or intraperitoneal administration to ddY mice; conditions: mouse, in vivo, 7 days, Litchfield-Wilcoxon
Protocol: The acute toxicity of the compound according to this invention was determined by forced oral or intraperitoneal administration thereof to ddY mice.
To prepare each specimen to be administered, a predetermined amount of each compound shown in Table 1 was dissolved in a physiological saline or suspended in a 0.2% solution of carboxymethylcellulose in a physiological saline. Each specimen was administered orally to a ddY mouse via its stomach tube or injected intraperitoneally.

Sarcoma-180 = test: Activity against a transplantable cancer, Sarcoma-180; format: in vivo, ICR-JCL mice; conditions: 100 mg/Kg ip once a day for 10 days, starting 24 hrs. after inoculation
Protocol: Sarcoma-180 cells (1×10^6 cells) were inoculated subcutaneously into the back skin of each of ICR-JCL mice.
Chemotherapy was given intraperitoneally 24 hrs. after inoculation and performed once a day for 10 days. Each specimen to be administered was prepared by dissolving or suspending 30 mg of each compound according to this invention in 1 ml of a pysiological saline or in 1 ml of a 0.2% solution of carboxymethylcellulose in a physiological saline, respectively.
All the solutions and the suspensions thus prepared were injected at a volume of 0.1 ml as a single dose (100 mg/Kg).
The inhibition ratio (%) was calculated according to the following equation: […]
wherein T represents the mean weight of the tumor Sarcoma-180 in a tested group of mice; and C represents the mean weight of the tumor in a control group of mice.

[2] = test system: synthesis of chondroitin sulfate (glycosaminoglycan) in epiphysial cartilages; test: Effect on synthesis of chondroitin sulfate (35S labelled glycosaminoglycan) in epiphysial cartilage; format: cell-based, chick embryos
From the text: In each Figure, the vertical axis denotes the amount of ^35 S labelled chondroitin sulfate (^35 S cpm×10^-4 /μmol·uronic acid), and the horizontal axis denotes the concentration (mM) of each xylopyranoside compound in the culture medium, and
x x: Total uptake amount of ^35 S labelled chondroitin sulfate,
: Amount of ^35 S labelled chondroitin sulfate in culture medium, and
: Amount of ^35 S labelled chondroitin sulfate in tissue.
Epiphysial cartilages were taken from chick embryos aged 12 days in the Tyrode's medium under ice-cooling, and excess tissues were removed therefrom. To 150 mg of cartilages corresponding to five embryos, 5 ml of BGJb [an entirely synthetic culture medium prepared according to a recipe of GIBCO (Grand Island Biological Company)] was added, followed by pre-incubation at a temperature of 37° C. After replacing the culture medium, further 1 ml of BGJb and 5μCi Na2^35 SO4 were added, and the culture system was kept at 37° C. for 3 hours. The culture medium was then replaced by a fresh chase medium containing no isotope. After keeping the culture system at 37° C. for 1 hour, the culture medium was separated from the tissues. To study the effects of the xyloside compound on the synthesis of glycosaminoglycan, the xyloside compound was added in the predetermined concentration to the pre-incubation and incubation media.
After the incubation, the labeled medium containing Na2^35 SO4 was combined with the chase medium. Pronase-P was added thereto in a 0.5 M tris-HCl buffer solution (pH 8.0), and the resulting mixture was digested at 50° C. for 16 hours. The digested reaction mixture was then subjected to gel filtration through a column (1.5×14 cm) packed with Bio-Gel P-2 (available from Bio-Rad Company) using a 0.2 M ammonium formate solution as elute. In this way, the Vo fraction was collected and was then freeze-dried to give crude glycosaminoglycan.
On the other hand, ice-cooled 4 M guanidine hydrochloride was added to the tissues which were previously separated from the culture medium. The resulting mixture was left to stand overnight at a temperature of -20° C., and then homogenized. The obtained homogenate was left to stand overnight at room temperature and centrifuged at a speed of 8,500 rpm to obtain a supernatant. To the obtained liquid, water was added in an amount threefold that of the supernatant. Then, a 95% ethyl alcohol (containing 1.3% of potassium acetate) was added to the resulting mixture in an amount threefold that of the mixture to obtain a precipitate. This procedure was repeated twice, and the combined precipitates were dried in a desiccator. The obtained precipitates were dissolved in a 0.02 M tris-HCl buffer solution (pH 8.0) and digested with Pronase-P (trade name) (available from Kaken Kagaku Co., Ltd.) in the manner similar to the culture medium described above, thereby obtaining crude glycosaminoglycan.
As the xyloside compound, conventional O-paranitrophenyl-β-D-xylopyranoside, and two compounds according to the present invention viz. C-n-butyl-β-D-xylopyranoside and C-ethyl-β-D-xylopyranoside were used. The effects of these xyloside compounds on the total amount of ^35 S labelled glycosaminoglycan synthesized (^35 S uptake amount), the amount thereof liberated to the culture medium and the amount thereof remaining in the tissues were as shown in FIGS. 1 to 3.

[3] = ip, intraperitoneal, read-out: LD50 (ip)

| SMILES | LD50 at 168 h [1, 3] [mg/kg] | LD50 at 168 h ([1]; oral, read-out: LD50 (po)) [mg/kg] | I.R. (inhibition ratio, tumor weight) (Sarcoma-180) [%] | Effectiveness as initiator for the synthesis of chondroitin sulfate [2] | 35S uptake of glycosaminoglycan ([2]; 1 mM) | activity at 1000 µM ([2]; Gallus gallus, 1 mM, read-out: 35S labelled glycosaminoglycan liberated to the culture medium) [%] | fold induction at 1000 µM ([2]; Gallus gallus, 1 mM, read-out: 35S uptake of glycosaminoglycan relative to control) | activity at 1000 µM ([2]; Gallus gallus, 1 mM, read-out: Amount of 35S labelled glycosaminoglycan remaining in the tissues) [%] | 35S uptake of glycosaminoglycan, concentration dependence ([2]; concentration rising from 0.05 mM to 1.0 mM) |
| --- | --- | --- | --- | --- | --- | --- | --- | --- | --- |
| CC[C@@H]1OC[C@@H](O)[C@H](O)[C@H]1O [C--Ethyl-β-D-xylopyranoside, C-Ethyl-β-D-xylopyranoside] | 2400 | 6900 | 52.8 | – | – | – | – | – | – |
| O=[N+]([O-])c1ccc(O[C@@H]2OC[C@@H](O)[C@H](O)[C@H]2O)cc1 [O-paranitrophenyl-β-D-xylopyranoside] | – | – | – | extremely effective | 40,800 count per minute (cpm) | 95 | 2.35 | 11 | increased |
| CCCC[C@@H]1OC[C@@H](O)[C@H](O)[C@H]1O [C--n-Butyl-β-D-xylopyranoside, C-n-Butyl-β-D-xylopyranoside] | 2400 | 5800 | 69.2 | – | – | – | – | – | – |

Reference: patent US4446312A, “C-β-D-Xylopyranoside series compounds” (Seikagaku Kogyo Co., Ltd., priority 1980, dated 1984)
